#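 Cells were grown in 96-well plates and exposed to each compound for 48 hours at five concentrations; endpoints were interpolated linearly between bracketing concentrations, or set to the highest concentration if not reached. Definition used: TGI = concentration required for complete inhibition of growth.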
# What was measured:
# Experiment in all cases: NCI anticancer screen, dose series, 48 h
# 786-0 renal = test system: 786-0 renal
# A498 renal = test system: A498 renal
# A549 NSCLC = test system: A549 NSCLC
# ACHN renal = test system: ACHN renal
# BT-549 breast = test system: BT-549 breast
# CAKI-1 renal = test system: CAKI-1 renal
# CCRF-CEM leukemia = test system: CCRF-CEM leukemia
# COLO 205 colon = test system: COLO 205 colon
# DU-145 prostate = test system: DU-145 prostate
# EKVX NSCLC = test system: EKVX NSCLC
# HCC-2998 colon = test system: HCC-2998 colon
# HCT-116 colon = test system: HCT-116 colon
# HCT-15 colon = test system: HCT-15 colon
# HL-60(TB) leukemia = test system: HL-60(TB) leukemia
# HOP-62 NSCLC = test system: HOP-62 NSCLC
# HOP-92 NSCLC = test system: HOP-92 NSCLC
# HS 578T breast = test system: HS 578T breast
# HT29 colon = test system: HT29 colon
# IGROV1 ovarian = test system: IGROV1 ovarian
# K-562 leukemia = test system: K-562 leukemia
# KM12 colon = test system: KM12 colon
# LOX IMVI melanoma = test system: LOX IMVI melanoma
# M14 melanoma = test system: M14 melanoma
# MALME-3M melanoma = test system: MALME-3M melanoma
# MCF7 breast = test system: MCF7 breast
# MDA-MB-231 breast = test system: MDA-MB-231 breast
# MDA-MB-435 = test system: MDA-MB-435
# MDA-N = test system: MDA-N
# MOLT-4 leukemia = test system: MOLT-4 leukemia
# NCI-H23 lung = test system: NCI-H23 lung
# NCI-H460 lung = test system: NCI-H460 lung
# NCI-H522 lung = test system: NCI-H522 lung
# NCI/ADR-RES ovarian = test system: NCI/ADR-RES ovarian
# OVCAR-3 ovarian = test system: OVCAR-3 ovarian
# OVCAR-4 ovarian = test system: OVCAR-4 ovarian
# OVCAR-5 ovarian = test system: OVCAR-5 ovarian
# OVCAR-8 ovarian = test system: OVCAR-8 ovarian
# PC-3 prostate = test system: PC-3 prostate
# RPMI-8226 leukemia = test system: RPMI-8226 leukemia
# RXF 393 renal = test system: RXF 393 renal
# SF-268 CNS = test system: SF-268 CNS
# SF-295 CNS = test system: SF-295 CNS
# SF-539 CNS = test system: SF-539 CNS
# SK-MEL-2 melanoma = test system: SK-MEL-2 melanoma
# SK-MEL-28 melanoma = test system: SK-MEL-28 melanoma
# SK-MEL-5 melanoma = test system: SK-MEL-5 melanoma
# SK-OV-3 ovarian = test system: SK-OV-3 ovarian
# SN12C renal = test system: SN12C renal
# SNB-19 CNS = test system: SNB-19 CNS
# SNB-75 CNS = test system: SNB-75 CNS
# SR leukemia = test system: SR leukemia
# SW-620 colon = test system: SW-620 colon
# T-47D breast = test system: T-47D breast
# TK-10 renal = test system: TK-10 renal
# U251 CNS = test system: U251 CNS
# UACC-257 melanoma = test system: UACC-257 melanoma
# UACC-62 melanoma = test system: UACC-62 melanoma
# UO-31 renal = test system: UO-31 renal
# NCI-H226 lung = test system: NCI-H226 lung
smiles,measurement,setting,value
COc1cc2oc3c(c(=O)c2c(O)c1/C=C/C(C)C)CCC(C)(C)Oc1cc(O)ccc1-3,TGI,786-0 renal,47.1 µM
same,TGI,A498 renal,42.6 µM
same,TGI,A549 NSCLC,27.1 µM
same,TGI,ACHN renal,27.1 µM
same,TGI,BT-549 breast,31.6 µM
same,TGI,CAKI-1 renal,30.6 µM
same,TGI,CCRF-CEM leukemia,57.6 µM
same,TGI,COLO 205 colon,66.9 µM
same,TGI,DU-145 prostate,97.9 µM
same,TGI,EKVX NSCLC,47.6 µM
same,TGI,HCC-2998 colon,27.5 µM
same,TGI,HCT-116 colon,65.9 µM
same,TGI,HCT-15 colon,21.8 µM
same,TGI,HL-60(TB) leukemia,45.4 µM
same,TGI,HOP-62 NSCLC,28.9 µM
same,TGI,HOP-92 NSCLC,34.3 µM
same,TGI,HS 578T breast,31.2 µM
same,TGI,HT29 colon,19.2 µM
same,TGI,IGROV1 ovarian,40.6 µM
same,TGI,K-562 leukemia,13.6 µM
same,TGI,KM12 colon,21.8 µM
same,TGI,LOX IMVI melanoma,> 100 µM
same,TGI,M14 melanoma,23 µM
same,TGI,MALME-3M melanoma,41.4 µM
same,TGI,MCF7 breast,26.7 µM
same,TGI,MDA-MB-231 breast,32.4 µM
same,TGI,MDA-MB-435,39.8 µM
same,TGI,MDA-N,25.6 µM
same,TGI,MOLT-4 leukemia,35 µM
same,TGI,NCI-H23 lung,30.1 µM
same,TGI,NCI-H460 lung,21.3 µM
same,TGI,NCI-H522 lung,38.1 µM
same,TGI,NCI/ADR-RES ovarian,39.3 µM
same,TGI,OVCAR-3 ovarian,29 µM
same,TGI,OVCAR-4 ovarian,28.6 µM
same,TGI,OVCAR-5 ovarian,30.7 µM
same,TGI,OVCAR-8 ovarian,31.4 µM
same,TGI,PC-3 prostate,28.4 µM
same,TGI,RPMI-8226 leukemia,45.5 µM
same,TGI,RXF 393 renal,24.4 µM
same,TGI,SF-268 CNS,32.2 µM
same,TGI,SF-295 CNS,27.7 µM
same,TGI,SF-539 CNS,26.2 µM
same,TGI,SK-MEL-2 melanoma,30.2 µM
same,TGI,SK-MEL-28 melanoma,40.2 µM
same,TGI,SK-MEL-5 melanoma,39.9 µM
same,TGI,SK-OV-3 ovarian,34.8 µM
same,TGI,SN12C renal,27.4 µM
same,TGI,SNB-19 CNS,30.7 µM
same,TGI,SNB-75 CNS,33.1 µM
same,TGI,SR leukemia,20 µM
same,TGI,SW-620 colon,51.8 µM
same,TGI,T-47D breast,> 100 µM
same,TGI,TK-10 renal,28.7 µM
same,TGI,U251 CNS,66.1 µM
same,TGI,UACC-257 melanoma,29.2 µM
same,TGI,UACC-62 melanoma,30.3 µM
same,TGI,UO-31 renal,25.8 µM
O=C(c1ccccc1)C(C(=O)c1ccccc1)c1nc2ccccc2sc1=O,TGI,786-0 renal,> 25 µM
same,TGI,A498 renal,> 25 µM
same,TGI,A549 NSCLC,> 25 µM
same,TGI,ACHN renal,> 25 µM
same,TGI,BT-549 breast,> 25 µM
same,TGI,CAKI-1 renal,> 25 µM
same,TGI,CCRF-CEM leukemia,> 25 µM
same,TGI,COLO 205 colon,> 25 µM
same,TGI,DU-145 prostate,> 25 µM
same,TGI,EKVX NSCLC,> 25 µM
same,TGI,HCC-2998 colon,> 25 µM
same,TGI,HCT-116 colon,> 25 µM
same,TGI,HCT-15 colon,> 25 µM
same,TGI,HL-60(TB) leukemia,> 25 µM
same,TGI,HOP-62 NSCLC,> 25 µM
same,TGI,HOP-92 NSCLC,13 µM
same,TGI,HS 578T breast,> 25 µM
same,TGI,HT29 colon,> 25 µM
same,TGI,IGROV1 ovarian,> 25 µM
same,TGI,K-562 leukemia,> 25 µM
same,TGI,KM12 colon,> 25 µM
same,TGI,LOX IMVI melanoma,> 25 µM
same,TGI,M14 melanoma,> 25 µM
same,TGI,MALME-3M melanoma,> 25 µM
same,TGI,MCF7 breast,> 25 µM
same,TGI,MDA-MB-231 breast,> 25 µM
same,TGI,MDA-MB-435,> 25 µM
same,TGI,MDA-N,> 25 µM
same,TGI,MOLT-4 leukemia,> 25 µM
same,TGI,NCI-H226 lung,23 µM
same,TGI,NCI-H23 lung,> 25 µM
same,TGI,NCI-H460 lung,> 25 µM
same,TGI,NCI-H522 lung,> 25 µM
same,TGI,NCI/ADR-RES ovarian,> 25 µM
same,TGI,OVCAR-3 ovarian,> 25 µM
same,TGI,OVCAR-4 ovarian,> 25 µM
same,TGI,OVCAR-5 ovarian,> 25 µM
same,TGI,OVCAR-8 ovarian,> 25 µM
same,TGI,PC-3 prostate,> 25 µM
same,TGI,RPMI-8226 leukemia,> 25 µM
same,TGI,RXF 393 renal,> 25 µM
same,TGI,SF-268 CNS,> 25 µM
same,TGI,SF-295 CNS,> 25 µM
same,TGI,SF-539 CNS,> 25 µM
same,TGI,SK-MEL-2 melanoma,> 25 µM
same,TGI,SK-MEL-28 melanoma,> 25 µM
same,TGI,SK-MEL-5 melanoma,> 25 µM
same,TGI,SK-OV-3 ovarian,> 25 µM
same,TGI,SN12C renal,> 25 µM
same,TGI,SNB-19 CNS,> 25 µM
same,TGI,SW-620 colon,> 25 µM
same,TGI,T-47D breast,> 25 µM
same,TGI,TK-10 renal,> 25 µM
same,TGI,U251 CNS,> 25 µM
same,TGI,UACC-257 melanoma,> 25 µM
same,TGI,UACC-62 melanoma,24 µM
same,TGI,UO-31 renal,> 25 µM
